# In PMC4289911, “[^68Ga]FSC-(RGD)3 a trimeric RGD peptide for imaging αvβ3 integrin expression based on a novel siderophore derived chelating scaffold—synthesis and evaluation” (Nuclear Medicine and Biology, 2015):
# Like-named read-outs stand apart in the source and are kept apart here.
# Legend:
# αvβ3 integrin [1] = target: T1, αvβ3 integrin (Homo sapiens, UniProt P05106+P06756); assay: Binding affinity for immobilized αvβ3 integrin, displacement of [125I]c(RGDyV); conditions: isolated αvβ3 integrin coated on 96-well plates, radioligand [125I]c(RGDyV), 0.001 to 100 nM peptide, three independent measurements
# T1 construct: purchased Millipore-Chemicon, Temecula, CA, USA
# Method: In vitro binding affinities of FSC-(RGD)3 and cyclo(-Arg-Gly-Asp-DTyr-Val-) (c(RGDyV)) as control were determined by using isolated αvβ3 integrin (Millipore-Chemicon, Temecula, CA, USA) and ^125I labeled c(RGDyV) as radioligand. The detailed procedure can be found in [16]. Briefly, 96-well plates (Nunc, Thermo Fisher Scientific, Vienna, Austria) were coated for 16 hours at 4 °C with the αvβ3 integrin. Subsequently, the immobilized receptors were incubated with [^125I]c(RGDyV) and increasing concentrations of the corresponding peptide ranging from 0.001 to 100 nM. The unbound fraction of radioligand was washed out, and receptor bound activity was obtained treating the wells with sodium hydroxide (NaOH) solution (2 M). IC50 values were determined by fitting the percent inhibition using OriginPro 8.5 software (Northhampton, MA, USA). Three independent measurements were made.
# αvβ3 integrin [2] = target: T1, αvβ3 integrin; conditions: comparison value; read-out: IC50, binding affinity for αvβ3 integrin; cited from earlier work
# Description: A high binding affinity to the isolated αvβ3 integrin for [^68Ga]FSC-(RGD)3 was found. […] A remarkable enhancement of internalized activity in comparison to [^68Ga]NODAGA-RGD or other monomeric RGD derivatives, [16] was observed. Moreover, ...
# T1 sequence (P06756 31-889 limits assumed): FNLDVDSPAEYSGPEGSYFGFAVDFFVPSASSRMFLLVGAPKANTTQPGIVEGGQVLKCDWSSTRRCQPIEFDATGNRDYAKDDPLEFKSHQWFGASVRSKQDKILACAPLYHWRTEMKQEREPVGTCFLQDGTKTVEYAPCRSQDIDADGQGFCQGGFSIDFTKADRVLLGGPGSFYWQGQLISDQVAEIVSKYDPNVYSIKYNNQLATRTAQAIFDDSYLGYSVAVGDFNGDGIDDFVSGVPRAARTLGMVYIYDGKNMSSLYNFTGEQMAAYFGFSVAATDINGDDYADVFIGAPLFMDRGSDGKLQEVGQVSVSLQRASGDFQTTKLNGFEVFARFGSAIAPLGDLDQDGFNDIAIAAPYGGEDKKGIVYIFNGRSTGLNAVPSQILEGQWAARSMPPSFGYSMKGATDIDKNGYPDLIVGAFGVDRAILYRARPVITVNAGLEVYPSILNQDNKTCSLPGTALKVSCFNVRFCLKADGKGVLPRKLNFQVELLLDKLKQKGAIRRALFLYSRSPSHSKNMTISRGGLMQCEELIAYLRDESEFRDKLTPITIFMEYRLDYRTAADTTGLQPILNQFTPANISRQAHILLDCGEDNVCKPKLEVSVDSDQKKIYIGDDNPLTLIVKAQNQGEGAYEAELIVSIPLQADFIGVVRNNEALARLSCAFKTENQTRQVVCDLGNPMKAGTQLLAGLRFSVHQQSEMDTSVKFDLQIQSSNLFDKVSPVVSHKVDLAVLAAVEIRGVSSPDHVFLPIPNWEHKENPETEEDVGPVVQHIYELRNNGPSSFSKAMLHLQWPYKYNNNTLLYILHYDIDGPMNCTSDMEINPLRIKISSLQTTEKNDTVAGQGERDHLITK
# T1 sequence (P06756 891-1048 partner limits assumed): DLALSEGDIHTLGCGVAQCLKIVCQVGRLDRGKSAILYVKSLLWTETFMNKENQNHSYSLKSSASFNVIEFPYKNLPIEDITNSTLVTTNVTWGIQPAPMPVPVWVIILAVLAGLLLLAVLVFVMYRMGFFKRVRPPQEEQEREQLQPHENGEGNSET
# T1 sequence (P05106 27-788): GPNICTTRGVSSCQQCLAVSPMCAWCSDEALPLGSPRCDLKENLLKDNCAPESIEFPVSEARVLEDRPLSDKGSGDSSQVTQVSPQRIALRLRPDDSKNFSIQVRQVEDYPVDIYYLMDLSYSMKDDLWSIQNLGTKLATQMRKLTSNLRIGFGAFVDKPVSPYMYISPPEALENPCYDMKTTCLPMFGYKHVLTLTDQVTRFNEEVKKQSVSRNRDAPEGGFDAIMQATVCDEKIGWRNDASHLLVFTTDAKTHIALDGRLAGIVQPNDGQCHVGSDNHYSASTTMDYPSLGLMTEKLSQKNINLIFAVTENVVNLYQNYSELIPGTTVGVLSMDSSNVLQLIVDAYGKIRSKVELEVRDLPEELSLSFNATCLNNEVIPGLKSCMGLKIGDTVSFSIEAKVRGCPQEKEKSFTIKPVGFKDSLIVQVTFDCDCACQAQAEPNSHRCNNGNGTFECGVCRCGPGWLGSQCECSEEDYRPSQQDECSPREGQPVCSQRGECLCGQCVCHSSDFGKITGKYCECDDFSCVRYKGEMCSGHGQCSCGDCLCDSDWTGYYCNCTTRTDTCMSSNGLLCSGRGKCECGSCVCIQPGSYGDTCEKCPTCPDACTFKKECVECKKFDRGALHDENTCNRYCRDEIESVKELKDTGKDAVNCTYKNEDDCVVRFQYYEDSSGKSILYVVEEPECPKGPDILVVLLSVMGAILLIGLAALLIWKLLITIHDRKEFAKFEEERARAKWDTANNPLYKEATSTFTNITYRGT
Compound,IC50 (αvβ3 integrin [1]),IC50 (αvβ3 integrin [2])
C/C1=C/C(=O)N(O)CCC[C@H](NC(=O)CCC(=O)NCCCC[C@@H]2NC(=O)[C@@H](Cc3ccccc3)NC(=O)[C@H](CC(=O)O)NC(=O)CNC(=O)[C@H](CCCNC(=N)N)NC2=O)C(=O)OCC/C(C)=C\C(=O)N(O)CCC[C@H](NC(=O)CCC(=O)NCCCC[C@@H]2NC(=O)[C@@H](Cc3ccccc3)NC(=O)[C@H](CC(=O)O)NC(=O)CNC(=O)[C@H](CCCNC(=N)N)NC2=O)C(=O)OCC/C(C)=C\C(=O)N(O)CCC[C@H](NC(=O)CCC(=O)NCCCC[C@@H]2NC(=O)[C@@H](Cc3ccccc3)NC(=O)[C@H](CC(=O)O)NC(=O)CNC(=O)[C@H](CCCNC(=N)N)NC2=O)C(=O)OCC1 [FSC-(RGD)3],1.8 ± 0.6 nM,
"CC(C)[C@@H]1NC(=O)[C@@H](Cc2ccc(O)cc2)NC(=O)[C@H](CC(=O)O)NC(=O)CNC(=O)[C@H](CCCNC(=N)N)NC1=O [c(RGDyV), cyclo(-Arg-Gly-Asp-DTyr-Val-)]",3.2 ± 1.2 nM,
[^68Ga]NODAGA-RGD: established monomeric 68Ga-labeled RGD peptide,,4.7 nM
